{"source": "patent US20250000855A1", "about": "“USE OF APOMORPHINE AS THERAPEUTIC AGENT FOR NECROPTOSIS-RELATED DISEASES” (INDUSTRY-ACADEMIC COOPERATION FOUNDATION, YONSEI UNIVERSITY, priority 2021, published 2025)", "key": {"DSS-induced colitis": {"test_system": "DSS-induced colitis", "test": "DSS-induced colitis mouse model", "format": "in vivo, C57BL/6 mice", "method": "An animal experiment was performed on 6 to 8-week-old male C57BL/6 mice in accordance with the procedures approved by the Animal Care and Use Committee of the Yonsei Laboratory Animal Research Center (YLARC, 2018-0024) at Yonsei University. The mice were housed in polypropylene cages with a maximum of four mice per cage under constant temperature and humidity, and the light/dark cycle was 12 hours/12 hours. All mice were given an acclimation period of at least 7 days before participation.\nFor colitis induced by dextran sulfate sodium (DSS, 36-50 kDa, MP Biomedicals), the mice were administered 2.5% DSS in drinking water for 7 days. The mice were randomly divided into 8 groups as follows. • 1) Control • 2) Apomorphine-treated group (=APO; STK088477, Vitas-M, 1.5 mg/kg, daily intraperitoneal injection) • 3) APO-treated group (15 mg/kg, daily intraperitoneal injection) 4) DSS-treated group • 5) DSS and necrostatine-1-treated group (NEC-1; Biovision, 1864-5, 1.5 mg/kg, daily intraperitoneal injection) • 6) DSS and APO-treated group (0.15 mg/kg, daily intraperitoneal injection) • 7) DSS and APO-treated group (1.5 mg/kg, daily intraperitoneal injection) • 8) DSS and APO-treated group (15 mg/kg, daily intraperitoneal injection)\nThe body weights and disease activity index (DAI) scores of the mice were recorded daily. DAI was calculated by adding scores of body weight loss (0 point=none, 1 point=1%-5% weight loss, 2 points=5%-10% weight loss, 3 points=10%-15% weight loss, 4 points=15% or more weight loss), stool consistency/diarrhea (0 point=normal, 2 points=loose stools, 4 points=watery diarrhea), and bleeding (0 point=no bleeding, 2 points=slight bleeding, 4 points=total bleeding). At the end of the experiment, the mice were sacrificed, the colon was removed, and then changes in colon length were confirmed, and a weight loss was measured.\nAt the end of the experiment, the mice were sacrificed, and the colon was removed (without the cecum). The removed colon was washed with cold phosphate-buffered saline (PBS; Welgene, LB001-02) before the measurement of its length. The measured colon was prepared for further analysis by cutting intestinal segments along the mesenteric line and washing with PBS. Then, the intestinal segments were placed in a petri dish and fixed with modified Bouin's fixative (50% ethanol/5% acetic acid in dH2O). The lumen side was maintained upward by holding the proximal end with forceps in one hand and a toothpick in the other. Then, the flat open end of the colon was pulled with the forceps and the proximal end was wrapped around the toothpick. The entire large intestine was wrapped, placed in a cassette, and immersed in 4% paraformaldehyde (Biosesang, PC2031-100-00) at 4° C. overnight.\nAfter the experiment, colon tissues collected from the sacrificed mice were fixed in 4% paraformaldehyde overnight. Swiss-rolled and fixed colon specimens were embedded in paraffin. The specimens were cut into 5-μm sections, and then the sections were stained with hematoxylin and eosin (H & E). The histological evaluation of colitis lesions along the entire length was performed with reference to a scoring system of the degree of crypt structure damage (0˜3), the degree of inflammatory cell infiltration (0˜3), and submucosal edema (0˜3).\n5-μm cut paraffin sections were blocked with 5% BSA-supplemented TBS-T, and then the sections and primary antibodies were co-incubated at 4° C. overnight. Secondary antibodies were added and incubated for 1 hour. […]"}, "[1]": {"biological_target": "T1, MLKL N-term domain (amino acids 1-154) (Homo sapiens, UniProt Q8NB16)", "T1 construct": "MLKL N-term (amino acids 1-154) protein that had been purified in a laboratory; made in house", "T1 sequence (Q8NB16 1-154)": "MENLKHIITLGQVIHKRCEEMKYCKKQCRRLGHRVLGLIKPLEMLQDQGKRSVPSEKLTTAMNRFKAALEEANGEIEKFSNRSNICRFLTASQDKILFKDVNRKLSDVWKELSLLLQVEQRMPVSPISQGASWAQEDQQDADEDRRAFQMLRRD", "test": "Surface plasmon resonance (SPR) analysis, binding to MLKL N-term domain", "settings": "MLKL N-term domain immobilized on CM5 chip, Biacore T200, 25° C., 10 mM HEPES pH 7.4", "method": "The interaction between MLKL and apomorphine (=APO) was detected through surface plasmon resonance (SPR) analysis using Biacore T200 (GE Healthcare). For pH scouting, a buffer consisting of 10 mM sodium acetate (pH 4.0 to 6.0) was used. MLKL protein (Abcam, ab241453), and MLKL N-term (amino acids 1-154) protein that had been purified in a laboratory were immobilized on the surface of a sensor chip CM5 (GE Healthcare) under scouted buffer conditions. To deduce an Rligand value, a coupling process was performed based on the molecular weights of MLKL, MLKL N-term domain (MW ligand), and APO (MW analyte). Oxidized (24 hr, RT incubation) and reduced (+DTT(DL-dithiothreitol)) forms of APO were injected into a running buffer (flow rate: 10 μl/min) consisting of 10 mM HEPES (pH 7.4) at 25° C. A sensorgram was recorded and analyzed in real time using control software provided by the Biacore T200 system itself. Six or more concentrations of APO were used in combination, and each KD value was derived. All run data was calculated using BIAevaluation Software (GE Healthcare).\nSPR analysis was used to analyze the interaction pattern between APO and the MLKL protein (Experimental Method 1-10). […] Here, the analysis was performed by binding MLKL and the MLKL N-term domain protein immobilized on a CM5 chip with APO having six concentrations."}}}
{"smiles": "CN1CCc2cccc3c2[C@H]1Cc1ccc(O)c(O)c1-3", "note": "[APO, apomorphine]", "values": [{"measurement": "characteristic symptoms of colitis observed by H&E staining and PAS staining", "setting": "DSS-induced colitis; DSS mice, APO 0.15, 1.5, and 15 mg/kg daily intraperitoneal injection, FIG. 7A", "result": "alleviated in a concentration-dependent manner"}, {"measurement": "HI score", "setting": "DSS-induced colitis; DSS mice, APO daily intraperitoneal injection, FIG. 7A", "result": "reduce"}, {"measurement": "degree of colon shortening", "setting": "DSS-induced colitis; DSS mice, APO daily intraperitoneal injection, FIG. 7B", "result": "reduce"}, {"measurement": "DAI score", "setting": "DSS-induced colitis; DSS mice, APO daily intraperitoneal injection, FIG. 7C", "result": "reduce"}, {"measurement": "differences due to treatment with APO alone (without DSS)", "setting": "DSS-induced colitis; mice without DSS, APO 1.5 or 15 mg/kg daily intraperitoneal injection", "result": "no differences"}, {"measurement": "Kd", "setting": "[1]", "result": 62.5, "unit": "nM"}]}
